The subject of experiment [1] is IKACh in dog atrial trabecular muscle preparations. Kind of experiment: Action potential duration in carbachol-pretreated dog atrial trabecular muscle. The following applies: 1 µM, 10 min. The method, then: The possible effect of SZV-2649 on IKACh was investigated in dog atrial trabecular muscle preparations. Carbachol (1 µM) was added to the tissue bath for 10 min to activate IKACh. […] Application of 10 µM SZV-2649 prolonged APD substantially to a greater degree (100%) than could be expected by its effect on repolarization in the absence of carbachol (10%) as shown in Table 1; Fig. 5D.
Action potentials were recorded in cardiac ventricular trabeculae and papillary muscle preparations obtained from the right ventricles of Beagle dogs (10–15 kg) of either sex using the conventional microelectrode technique. Dogs were sacrificed by iv. sedation with xylazine (1 mg/kg), followed by i.v. administration of 50 mg/kg pentobarbital. After the cornea reflex disapeared the chest was opened, and the heart was rapidly removed. […]
Isolated papillary muscle or atrial trabecula and Purkinje fiber preparations were obtained and prepared from the right ventricle and were individually mounted in a tissue chamber with the volume of 50 ml. […] Transmembrane potentials were recorded using conventional glass microelectrodes, filled with 3 M KCl and having tip resistances of 5–20 MΩ, connected to the input of a high impedance electrometer (Experimetria, type 309, Budapest, Hungary) which was coupled to a dual beam oscilloscope. […]

The subject of another experiment is anesthetized rats. Kind of experiment: Coronary artery occlusion/reperfusion-induced ventricular arrhythmias in anesthetized rats. It counts as in vivo, rat. Particulars: for Effect on incidence of ventricular arrhythmias: 6 min coronary artery occlusion / 5 min reperfusion, i.v. 2 min before ischemia; for Incidence of ventricular fibrillation (VF): during reperfusion, over 50% in control animals; for Effect on heart rate: i.v. administration, anesthetized rats. From the text: The effects of SZV-2649 were further studied in the acute ischemia-induced ventricular arrhythmia model in anasthetized rats. Mexiletine and dofetilide were used as reference compounds for comparison.
The surgical procedure was based on a modified method described in detail in Gömöri et al. (2020)[62]. Pentobarbital-anesthetized male Wistar-Hannover rats were mechanically ventilated and subjected to thoracic surgery to perform a 6-min coronary artery occlusion and 5-min of reperfusion for the development of ischemia-induced ventricular arrhythmias (see Fig. 6A). The right jugular vein was cannulated for the administration of SZV-2649, vehicle, mexiletine or dofetilide, and the right carotid artery was used to measure blood pressure. The three-lead electrocardiogram and body temperature were continuously registered. Ten to twelve rats per group were administered vehicle (dimethyl sulfoxide, 200 µL/kg) or the studied drugs (see above), 2 min before the onset of ischemia as a slow i.v. bolus injection through the right jugular vein. At the end of 5-min reperfusion, hearts were isolated, mounted onto a Langendorff perfusion system, and after re-occluding the coronary artery, were perfused with 5-mL of 70% ethanol via the ascending aorta to delineate the ischemic risk zone. Then the left ventricles were cut along the demarcation lines of denatured area, and the sections were weighed to determine the area of risk to normalize the extent of the ischaemic insult. We evaluated the occurrence of ventricular arrhythmias based on the recommendations of the modified Lambeth Conventions published previously by Curtis et al. (2013)[63].

Another experiment has as its system anesthetized dogs. As to the kind of experiment: Atrial fibrillation induced by carbachol infusion and burst stimulation in anesthetized dogs. Set-up: key to AF converted to SR? / AF reinduced?: N, response not observed; Y, response observed. It counts as in vivo, dog. Particulars: i.v. 0.3 mg/kg. The method, then:
The effect of SZV-2649 was further investigated in carbachol-infused and programmed electrical stimulation-induced (i.e. 800/min atrial burst stimulation) acute atrial fibillation model in anesthetized dogs.
In the atrial fibrillation experiments, at least 5–6 dogs for control and test groups, (respectively) were used. Following 0.5 µg/kg sufentanyl premedication and […] i.v. pentobarbital anaesthesia induction, left thoracotomy was performed on all animals. Dogs were endotracheally intubated and mechanically ventilated (UGO Basile respirator; Biological Research Apparatus, Italy) Physiological parameters (non-invasive blood pressure, SpO2, ECG) were continuously monitored during surgery and experiments (InnoCare-VET Patient Care Monitor; Budapest, Hungary). The ECGs were recorded using precordial leads and were digitized and stored on a computer for off-line analysis using National Instruments data acquisition hardware (National Instruments, Austin, Texas, USA) and SPEL Advanced Haemosys software (version 3.2, MDE Heidelberg GmbH, Germany). Under pentobarbital anaesthesia, two pacemaker electrodes (Biotronik Solia S 60; Biotronik Ltd., Hungary) were positioned epicardially into the left atrial appendage and apex of the left ventricle, respectively, and electrodes were connected to pacemakers (Effecta D; Biotronik Hungary Ltd., Hungary). Pacemakers were programmed in VVI mode using Biotronik IC: 4808 A-Renamic programmer to prevent the potentially bradycardic effect of carbachol leading to hemodynamic instability. Atrial and ventricular thresholds were measured before AF induction in all animals. Ventricular and atrial pacing were set to three times the measured threshold. AF inducibility were tested in both groups using a control set (25 times) of 10-second-long rapid atrial bursts (800 beats/min, at threefold threshold). Following 25 atrial burst stimuli, 2 × 2 µg/kg loading dose of intravenous carbachol was administered followed by an 8 µg/kg/h maintenance dose. Atrial fibrillation was induced using 10-second-long atrial burst stimuli in the presence of carbachol in both groups of dogs. […] In these experiments, we investigated whether AF was converted to SR by the test drug(s). All intravenous infusions were performed using a programmable infusion pump (Terufusion TE-3; Terumo Europe, Leuven, Belgium).

SMILES strings stand for the structures.

On to `C[N+](C)(C)CCOC(N)=O` [carbachol, reference compound], for which the “Effect on atrial repolarization” value in experiment [1] is recorded as “substantially shortened”.
Turning to `CN(CCOc1ccc(NS(C)(=O)=O)cc1)CCc1ccc(NS(C)(=O)=O)cc1` [dofetilide], in the experiment with anesthetized rats, the “Effect on incidence of ventricular arrhythmias” value is “increased”, the “Incidence of ventricular fibrillation (VF)” value was found to be 75% and the “Effect on heart rate” value is “significantly decreased”.
The matching figures for `Cc1cccc(C)c1OCC(C)N` (centres unmarked) [mexiletine]: “showed some antiarrhythmic effects”, 18% and “significantly decreased”.
`CCCNCC(O)COc1ccccc1C(=O)CCc1ccccc1` (centres unmarked) [propafenone, reference compound]: the “AF reinduced (number of the 25 burst stimuli)” value in the experiment on anesthetized dogs (individual dogs, carbachol + burst) is on record as 1/25. Also, the “AF reinduced?” value in the experiment with anesthetized dogs (individual dogs, carbachol + burst, 0.3 mg/kg) was “N (-) and Y”. For the same molecule, in the experiment with anesthetized dogs (whole group), the “Atrial fibrillation reinduced, share of burst stimuli” value turned out to be 1.6% and the “Times atrial fibrillation was reinduced by the 25 burst stimuli delivered in each animal” value is on record as 2 times.

For the origin of these results see PMC11455950, “Effects of SZV-2649, a new multiple ion channel inhibitor mexiletine analogue” (Scientific Reports, 2024).
